Measurements taken from patent US10016438B2, “Bicyclic heterocycles as FGFR4 inhibitors” (Incyte Corporation, priority 2015, dated 2018).

Columns and labels:
FGFR3 = FGFR3 (Homo sapiens (Human), UniProt P22607); assay: FGFR Enzymatic Assay (FRET peptide phosphorylation), FGFR3; settings: read-out: FGFR3 IC50; pre-incubated for 4 hours
Description: (§1) The enzymes were purchased from Millipore or Invitrogen.
(§2) GraphPad prism3 was used to analyze the data. The IC50 values were derived by fitting the data to the equation for a sigmoidal dose-response with a variable slope. Y=Bottom+(Top−Bottom)/(1+10^((Log IC50−X)*HillSlope)) where X is the logarithm of concentration and Y is the response.

FGFR1 = FGFR1 (Homo sapiens (Human), UniProt P11362); assay: FGFR Enzymatic Assay (FRET peptide phosphorylation), FGFR1; settings: read-out: FGFR1 IC50; pre-incubated for 4 hours
FGFR1, sequence (P11362 22-822): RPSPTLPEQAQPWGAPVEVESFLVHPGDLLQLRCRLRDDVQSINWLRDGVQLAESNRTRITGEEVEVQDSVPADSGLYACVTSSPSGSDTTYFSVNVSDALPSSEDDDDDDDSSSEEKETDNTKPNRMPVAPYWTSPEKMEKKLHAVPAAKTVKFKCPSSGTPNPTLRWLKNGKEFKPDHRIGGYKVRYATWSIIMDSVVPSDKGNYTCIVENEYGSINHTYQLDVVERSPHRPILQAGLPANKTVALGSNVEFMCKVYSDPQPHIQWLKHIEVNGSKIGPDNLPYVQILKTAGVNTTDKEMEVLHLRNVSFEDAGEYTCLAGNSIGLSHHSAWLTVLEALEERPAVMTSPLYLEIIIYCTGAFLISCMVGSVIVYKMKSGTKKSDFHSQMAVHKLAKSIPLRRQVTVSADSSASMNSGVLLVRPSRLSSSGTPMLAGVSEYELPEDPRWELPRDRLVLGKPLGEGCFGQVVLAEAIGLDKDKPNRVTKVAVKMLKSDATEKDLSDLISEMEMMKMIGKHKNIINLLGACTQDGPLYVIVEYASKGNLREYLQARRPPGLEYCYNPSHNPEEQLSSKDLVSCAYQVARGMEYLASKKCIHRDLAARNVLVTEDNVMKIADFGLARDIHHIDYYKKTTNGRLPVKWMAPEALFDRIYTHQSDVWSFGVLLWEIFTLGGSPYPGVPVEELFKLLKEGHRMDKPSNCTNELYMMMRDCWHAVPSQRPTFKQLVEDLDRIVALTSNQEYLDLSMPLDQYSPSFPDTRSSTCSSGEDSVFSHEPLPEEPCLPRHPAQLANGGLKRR
Description: as §1, §2

FGFR2 = FGFR2 (Homo sapiens (Human), UniProt P21802); assay: FGFR Enzymatic Assay (FRET peptide phosphorylation), FGFR2; settings: read-out: FGFR2 IC50; pre-incubated for 4 hours
FGFR2, sequence (P21802 22-821): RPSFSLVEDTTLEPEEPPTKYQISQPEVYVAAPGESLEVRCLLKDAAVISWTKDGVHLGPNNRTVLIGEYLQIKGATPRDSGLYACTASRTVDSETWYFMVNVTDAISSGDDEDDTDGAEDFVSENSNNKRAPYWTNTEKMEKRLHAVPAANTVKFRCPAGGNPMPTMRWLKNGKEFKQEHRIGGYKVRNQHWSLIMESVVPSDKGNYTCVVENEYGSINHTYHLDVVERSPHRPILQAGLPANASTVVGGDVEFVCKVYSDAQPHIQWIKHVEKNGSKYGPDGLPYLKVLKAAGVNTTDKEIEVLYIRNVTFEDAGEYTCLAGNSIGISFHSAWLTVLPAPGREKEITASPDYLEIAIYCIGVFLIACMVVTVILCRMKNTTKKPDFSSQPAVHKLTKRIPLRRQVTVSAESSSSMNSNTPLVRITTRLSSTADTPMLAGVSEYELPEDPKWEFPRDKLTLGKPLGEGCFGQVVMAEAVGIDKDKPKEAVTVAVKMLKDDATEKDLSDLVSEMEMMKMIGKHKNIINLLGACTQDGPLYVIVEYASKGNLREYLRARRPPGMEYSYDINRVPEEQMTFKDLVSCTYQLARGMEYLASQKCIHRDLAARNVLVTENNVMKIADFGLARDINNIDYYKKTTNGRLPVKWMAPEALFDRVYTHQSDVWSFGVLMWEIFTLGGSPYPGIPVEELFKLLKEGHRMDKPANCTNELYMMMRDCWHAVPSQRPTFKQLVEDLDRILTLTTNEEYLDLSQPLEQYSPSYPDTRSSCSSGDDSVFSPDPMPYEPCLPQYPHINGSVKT
Description: as §1, §2

FGFR4 = FGFR4 (Homo sapiens (Human), UniProt P22455); assay: FGFR Enzymatic Assay (FRET peptide phosphorylation), FGFR4; settings: pre-incubated for 4 hours; for FGFR1/FGFR4 / FGFR2/FGFR4 / FGFR3/FGFR4: IC50 ratio showing FGFR4 selectivity
FGFR4, sequence (P22455 22-802): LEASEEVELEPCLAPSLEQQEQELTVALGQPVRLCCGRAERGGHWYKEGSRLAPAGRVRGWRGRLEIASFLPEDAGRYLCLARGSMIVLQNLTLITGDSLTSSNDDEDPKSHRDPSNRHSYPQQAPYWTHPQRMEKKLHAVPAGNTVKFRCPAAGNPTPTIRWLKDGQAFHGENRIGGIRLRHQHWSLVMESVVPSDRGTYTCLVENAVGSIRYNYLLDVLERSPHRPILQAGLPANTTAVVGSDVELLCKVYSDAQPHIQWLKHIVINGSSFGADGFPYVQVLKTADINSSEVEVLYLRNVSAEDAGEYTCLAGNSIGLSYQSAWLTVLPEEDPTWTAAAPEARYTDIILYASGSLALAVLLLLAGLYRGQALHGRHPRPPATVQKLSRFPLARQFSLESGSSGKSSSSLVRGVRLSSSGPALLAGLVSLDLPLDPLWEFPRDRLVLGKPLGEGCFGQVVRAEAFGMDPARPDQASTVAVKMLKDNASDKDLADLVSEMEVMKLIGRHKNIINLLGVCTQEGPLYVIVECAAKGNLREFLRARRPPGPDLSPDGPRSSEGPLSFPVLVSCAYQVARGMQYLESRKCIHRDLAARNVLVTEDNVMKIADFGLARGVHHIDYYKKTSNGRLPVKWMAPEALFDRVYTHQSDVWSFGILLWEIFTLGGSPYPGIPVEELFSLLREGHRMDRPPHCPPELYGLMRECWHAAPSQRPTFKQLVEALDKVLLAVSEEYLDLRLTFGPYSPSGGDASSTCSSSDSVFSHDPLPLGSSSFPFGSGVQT
Description: as §1, §2

FGFR3, sequence (P22607 23-806): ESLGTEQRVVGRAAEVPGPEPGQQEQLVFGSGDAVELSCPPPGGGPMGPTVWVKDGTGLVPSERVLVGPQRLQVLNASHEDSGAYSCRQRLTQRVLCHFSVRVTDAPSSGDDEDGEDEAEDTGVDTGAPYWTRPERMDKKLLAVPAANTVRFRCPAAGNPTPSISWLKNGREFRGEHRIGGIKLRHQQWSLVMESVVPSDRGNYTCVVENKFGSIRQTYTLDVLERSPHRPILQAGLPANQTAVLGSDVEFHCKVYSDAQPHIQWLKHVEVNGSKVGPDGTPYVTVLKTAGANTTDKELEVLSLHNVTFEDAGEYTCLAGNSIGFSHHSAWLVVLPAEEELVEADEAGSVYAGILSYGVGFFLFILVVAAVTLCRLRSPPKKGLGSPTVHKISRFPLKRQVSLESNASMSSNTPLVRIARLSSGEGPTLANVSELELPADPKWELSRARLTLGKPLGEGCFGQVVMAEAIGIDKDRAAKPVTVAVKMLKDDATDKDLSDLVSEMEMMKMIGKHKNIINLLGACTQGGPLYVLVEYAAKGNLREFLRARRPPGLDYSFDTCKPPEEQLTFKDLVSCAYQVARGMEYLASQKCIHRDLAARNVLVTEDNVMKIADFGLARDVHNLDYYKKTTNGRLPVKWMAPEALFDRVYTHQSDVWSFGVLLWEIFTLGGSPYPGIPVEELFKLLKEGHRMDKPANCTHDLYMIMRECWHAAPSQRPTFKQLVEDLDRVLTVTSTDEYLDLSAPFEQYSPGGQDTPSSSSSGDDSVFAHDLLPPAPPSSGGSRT

Row | IC50 (FGFR3) [nM] | IC50 (FGFR1) [nM] | IC50 (FGFR2) [nM] | FGFR1/FGFR4 (FGFR4) | FGFR2/FGFR4 (FGFR4) | FGFR3/FGFR4 (FGFR4) | IC50 (FGFR4; read-out: FGFR4 IC50) [nM] | SMILES
1 | > 200 | > 200 | > 200 | >50 | >100 | >100 | – | C=CC(=O)Nc1cnn(CC(=O)NC)c1-c1cc2c(cn1)CN(c1c(F)c(OC)cc(OC)c1F)C(=O)C21CC1 [Example 20, N-(5-(2′-(2,6-difluoro-3,5-dimethoxyphenyl)-3′-oxo-2′,3′-dihydro-1′H-spiro[cyclopropane-1,4′-[2,7]naphthyridine]-6′-yl)-1-(2-(methylamino)-2-oxoethyl)-1H-pyrazol-4-yl)acrylamide]
2 | – | – | – | >100 | >100 | >100 | – | C=CC(=O)Nc1cn(CCOC)nc1-c1cc2c(cn1)CN(c1c(F)c(OC)cc(OC)c1F)C(=O)C21CC1 [Example 32, N-(3-(2′-(2,6-difluoro-3,5-dimethoxyphenyl)-3′-oxo-2′,3′-dihydro-1′H-spiro[cyclopropane-1,4′-[2,7]naphthyridine]-6′-yl)-1-(2-methoxyethyl)-1H-pyrazol-4-yl)acrylamide]
3 | – | – | – | >100 | >100 | >100 | – | C=CC(=O)Nc1cn(CCOC(F)(F)F)nc1-c1cc2c(cn1)CN(c1c(F)c(OC)cc(OC)c1F)C(=O)C21CC1 [Example 33, N-(3-(2′-(2,6-difluoro-3,5-dimethoxyphenyl)-3′-oxo-2′,3′-dihydro-1′H-spiro[cyclopropane-1,4′-[2,7]naphthyridine]-6′-yl)-1-(2-(trifluoromethoxy)ethyl)-1H-pyrazol-4-yl)acrylamide]
4 | – | – | – | >100 | >100 | >100 | – | C=CC(=O)Nc1cn(CCN2CCOCC2)nc1-c1cc2c(cn1)CN(c1c(F)c(OC)cc(OC)c1F)C(=O)C21CC1 [Example 34, N-(3-(2′-(2,6-difluoro-3,5-dimethoxyphenyl)-3′-oxo-2′,3′-dihydro-1′H-spiro[cyclopropane-1,4′-[2,7]naphthyridine]-6′-yl)-1-(2-morpholinoethyl)-1H-pyrazol-4-yl)acrylamide]
5 | – | – | – | >100 | >100 | >100 | – | C=CC(=O)Nc1cn(CC2CCOCC2)nc1-c1cc2c(cn1)CN(c1c(F)c(OC)cc(OC)c1F)C(=O)C21CC1 [Example 35, N-(3-(2′-(2,6-difluoro-3,5-dimethoxyphenyl)-3′-oxo-2′,3′-dihydro-1′H-spiro[cyclopropane-1,4′-[2,7]naphthyridine]-6′-yl)-1-((tetrahydro-2H-pyran-4-yl)methyl)-1H-pyrazol-4-yl)acrylamide]
6 | – | – | – | >100 | >100 | >100 | – | C=CC(=O)Nc1cn(CC(=O)N(C)C)nc1-c1cc2c(cn1)CN(c1c(F)c(OC)cc(OC)c1F)C(=O)C21CC1 [Example 36, N-(3-(2′-(2,6-difluoro-3,5-dimethoxyphenyl)-3′-oxo-2′,3′-dihydro-1′H-spiro[cyclopropane-1,4′-[2,7]naphthyridine]-6′-yl)-1-(2-(dimethylamino)-2-oxoethyl)-1H-pyrazol-4-yl)acrylamide]

Continued, molecule first:

Row | SMILES | IC50 (FGFR3) [nM] | IC50 (FGFR1) [nM] | IC50 (FGFR2) [nM] | FGFR1/FGFR4 (FGFR4) | FGFR2/FGFR4 (FGFR4) | FGFR3/FGFR4 (FGFR4) | IC50 (FGFR4; read-out: FGFR4 IC50) [nM]
7 | C=CC(=O)Nc1cnn(Cc2ccncc2)c1-c1cc2c(cn1)CN(c1c(F)c(OC)cc(OC)c1F)C(=O)C21CC1 [Example 21, N-(5-(2′-(2,6-difluoro-3,5-dimethoxyphenyl)-3′-oxo-2′,3′-dihydro-1′H-spiro[cyclopropane-1,4′-[2,7]naphthyridine]-6′-yl)-1-(pyridin-4-ylmethyl)-1H-pyrazol-4-yl)acrylamide] | – | – | – | >100 | >50 | >100 | –
8 | C=CC(=O)Nc1cnn(Cc2cccnc2)c1-c1cc2c(cn1)CN(c1c(F)c(OC)cc(OC)c1F)C(=O)C21CC1 [Example 22, N-(5-(2′-(2,6-difluoro-3,5-dimethoxyphenyl)-3′-oxo-2′,3′-dihydro-1′H-spiro[cyclopropane-1,4′-[2,7]naphthyridine]-6′-yl)-1-(pyridin-3-ylmethyl)-1H-pyrazol-4-yl)acrylamide] | – | – | – | >100 | >100 | >100 | –
9 | C=CC(=O)Nc1cnn(Cc2ncn(C)n2)c1-c1cc2c(cn1)CN(c1c(F)c(OC)cc(OC)c1F)C(=O)C21CC1 [Example 23, N-(5-(2′-(2,6-difluoro-3,5-dimethoxyphenyl)-3′-oxo-2′,3′-dihydro-1′H-spiro[cyclopropane-1,4′-[2,7]naphthyridine]-6′-yl)-1-((1-methyl-1H-1,2,4-triazol-3-yl)methyl)-1H-pyrazol-4-yl)acrylamide] | – | – | – | >100 | >100 | >100 | –
10 | C=CC(=O)Nc1cnn(CC2CCOCC2)c1-c1cc2c(cn1)CN(c1c(F)c(OC)cc(OC)c1F)C(=O)C21CC1 [Example 24, N-(5-(2′-(2,6-difluoro-3,5-dimethoxyphenyl)-3′-oxo-2′,3′-dihydro-1′H-spiro[cyclopropane-1,4′-[2,7]naphthyridine]-6′-yl)-1-((tetrahydro-2H-pyran-4-yl)methyl)-1H-pyrazol-4-yl)acrylamide] | – | – | – | >100 | >100 | >100 | –
11 | C=CC(=O)Nc1cnn(Cc2ccon2)c1-c1cc2c(cn1)CN(c1c(F)c(OC)cc(OC)c1F)C(=O)C21CC1 [Example 25, N-(5-(2′-(2,6-difluoro-3,5-dimethoxyphenyl)-3′-oxo-2′,3′-dihydro-1′H-spiro[cyclopropane-1,4′-[2,7]naphthyridine]-6′-yl)-1-(isoxazol-3-ylmethyl)-1H-pyrazol-4-yl)acrylamide] | – | – | – | >100 | >100 | >100 | –
12 | C=CC(=O)Nc1cnn(Cc2ccnn2C)c1-c1cc2c(cn1)CN(c1c(F)c(OC)cc(OC)c1F)C(=O)C21CC1 [Example 26, N-(5-(2′-(2,6-difluoro-3,5-dimethoxyphenyl)-3′-oxo-2′,3′-dihydro-1′H-spiro[cyclopropane-1,4′-[2,7]naphthyridine]-6′-yl)-1-((1-methyl-1H-pyrazol-5-yl)methyl)-1H-pyrazol-4-yl)acrylamide] | – | – | – | >100 | >50 | >100 | –
13 | C=CC(=O)Nc1cnn(Cc2cnn(C)c2)c1-c1cc2c(cn1)CN(c1c(F)c(OC)cc(OC)c1F)C(=O)C21CC1 [Example 27, N-(5-(2′-(2,6-difluoro-3,5-dimethoxyphenyl)-3′-oxo-2′,3′-dihydro-1′H-spiro[cyclopropane-1,4′-[2,7]naphthyridine]-6′-yl)-1-((1-methyl-1H-pyrazol-4-yl)methyl)-1H-pyrazol-4-yl)acrylamide] | – | – | – | >100 | >100 | >100 | –
14 | C=CC(=O)Nc1cnn(C[C@@H]2CCOC2)c1-c1cc2c(cn1)CN(c1c(F)c(OC)cc(OC)c1F)C(=O)C21CC1 [Example 28, (S)-N-(5-(2′-(2,6-difluoro-3,5-dimethoxyphenyl)-3′-oxo-2′,3′-dihydro-1′H-spiro[cyclopropane-1,4′-[2,7]naphthyridine]-6′-yl)-1-((tetrahydrofuran-3-yl)methyl)-1H-pyrazol-4-yl)acrylamide] | – | – | – | >100 | >100 | >100 | –
15 | C=CC(=O)Nc1cnn(C[C@H]2CCOC2)c1-c1cc2c(cn1)CN(c1c(F)c(OC)cc(OC)c1F)C(=O)C21CC1 [Example 29, (R)-N-(5-(2′-(2,6-difluoro-3,5-dimethoxyphenyl)-3′-oxo-2′,3′-dihydro-1′H-spiro[cyclopropane-1,4′-[2,7]naphthyridine]-6′-yl)-1-((tetrahydrofuran-3-yl)methyl)-1H-pyrazol-4-yl)acrylamide] | – | – | – | >100 | >100 | >100 | –
16 | C=CC(=O)Nc1cnn(C[C@H]2CCCO2)c1-c1cc2c(cn1)CN(c1c(F)c(OC)cc(OC)c1F)C(=O)C21CC1 [Example 30, (R)-N-(5-(2′-(2,6-difluoro-3,5-dimethoxyphenyl)-3′-oxo-2′,3′-dihydro-1′H-spiro[cyclopropane-1,4′-[2,7]naphthyridine]-6′-yl)-1-((tetrahydrofuran-2-yl)methyl)-1H-pyrazol-4-yl)acrylamide] | – | – | – | >100 | >100 | >100 | –
17 | C=CC(=O)Nc1cnn(C[C@@H]2CCCO2)c1-c1cc2c(cn1)CN(c1c(F)c(OC)cc(OC)c1F)C(=O)C21CC1 [Example 31, (S)-N-(5-(2′-(2,6-difluoro-3,5-dimethoxyphenyl)-3′-oxo-2′,3′-dihydro-1′H-spiro[cyclopropane-1,4′-[2,7]naphthyridine]-6′-yl)-1-((tetrahydrofuran-2-yl)methyl)-1H-pyrazol-4-yl)acrylamide] | > 200 | > 200 | > 200 | >100 | >100 | >100 | < 10
18 | C=CC(=O)Nc1ccc(C)c(-c2ncc3c(n2)C2(CC2)C(=O)N(c2c(F)c(OC)cc(OC)c2F)C3)c1 [Example 37, N-(3-(6′-(2,6-difluoro-3,5-dimethoxyphenyl)-7′-oxo-6′,7′-dihydro-5′H-spiro[cyclopropane-1,8′-pyrido[4,3-d]pyrimidine]-2′-yl)-4-methylphenyl)acrylamide] | – | – | – | >100 | >100 | >100 | –
